This note sets out measurements from patent publication US7592467B2, “Inhibitors of prolyl endopeptidase” (Probiodrug AG, priority 2005, dated 2009).

For experiment [1], the system named is human glial U-343 cells. In words: IL-6 ELISA, basal secretion of IL-6. In kind it is cell-based. Particulars: inhibitor 20 μM, 24 hours, serum-free medium, untreated control = 100%, read-out: Extracellular IL-6 concentration, % of untreated cells. The method, then:
To analyze basal secretion of IL-6, human glial U-343 cells were cultured in 6 well plates (1.5×10^6 cells/well, Greiner) and treated with specific PEP inhibitors as indicated (20 μM each) for 24 hours in serum-free D-MEM medium (invitrogen). Aliquots of 40 μl conditioned medium were used to quantify the amount of secreted IL-6 by an human-specific IL-6 ELISA (Biosource) following the manufacturer's instructions. All data were obtained in quadruplicate. For the calculation of the IL-6 concentration in the cell culture medium after PEP-inhibitor treatment, the basal IL-6 concentration of the cell culture medium of untreated cell samples was set to 100%. The results of the measurement of the IL-6 concentration with PEP-inhibitor treated cells are presented as % of the untreated cell samples.

For experiment [2], the system named is U-343 and SH-SY5Y cells. Description: β-Amyloid ELISA, secreted β-amyloid peptides 1-40 and 1-42. The experiment is classed as cell-based. Particulars: Homo sapiens, inhibitor 20 μM, 24 hours, conditioned medium, untreated cells = 100%, cell line and peptide (1-40/1-42) not given, read-out: Extracellular Aβ-concentration, % of control. The method, then:
The human glioma cell line, U-343 and the human neuroblastoma cell line, SH-SY5Y were maintained in Dulbecco's modified Eagle's medium (DMEM) containing 10% fetal bovine serum (Gibco BRL, Karlsruhe, Germany) and incubated at 37° C. in a 5% CO2 atmosphere. Culture media contained in general 60 μg/ml gentamycin (Gibco BRL, Karlsruhe, Germany).
To quantify intracellular and extracellular concentrations of 0-amyloid peptides, 1-40 and 1-42, U-343 and SH-SY5Y cells were cultured in 6 well plates (1.5×10^6 cells/well) and treated with specific PEP inhibitors (20 μM each) for 24 hours. For quantitation of secreted β-amyloid peptides the conditioned medium was collected and concentrated by lyophylisation. Likewise, after determination of the cell numbers/well (casy cell counter I, Schärfe System, Reutlingen, Germany), cells were lyzed with cell extraction buffer (Biosource, Solingen, Germany) according to the manufacturer's protocol. The protein concentration was determined by the method of Bradford (1976). Aliquots of 100 μl were used to quantify β-amyloid peptides 1-40 and 1-42 in quadruplicate by ELISA (IBL, Hamburg, Germany) following the manufacturer's instructions. All obtained intracellular and extracellular concentrations were normalized to cell numbers and protein concentration, respectively.
For the calculation of the concentration of β-amyloid peptides 1-40 and 1-42 in the cell culture medium after PEP-inhibitor treatment, the basal concentration of β-amyloid peptides 1-40 and 1-42 in the cell culture medium of untreated cell samples was set to 100%. The results of the measurement of the concentration of β-amyloid peptides 1-40 and 1-42 with PEP-inhibitor treated cells are presented as % of the untreated cell samples.

Regarding `O=C(NCCc1ccccc1)c1ccccc1C(=O)c1cccs1` [Example 30], the activity at 20 µM in experiment [1] was found to be 42.3%; in experiment [2], 205%.
As to `O=C(OCCN1C(=O)c2ccccc2C1=O)c1ccccc1C(=O)c1cccs1` [Example 10, 2-(Isoindolinyl-1,3-dione-ethyl-oxycarbonyl)-phenylthenon], the activity at 20 µM in experiment [1] was 143%; in experiment [2], 125%.
The like results for `O=C(OCCc1ccsc1)c1ccccc1C(=O)c1cccs1` [Example 17] were, in that order, 26.5% and 237%.
As for `CCCCCCOC(=O)c1ccccc1C(=O)c1cccs1` [Example 39], in experiment [1], the activity at 20 µM is 50.2%.
In the case of `O=C(OCCc1ccccc1)[C@@H]1CCCC[C@H]1C(=O)c1cccs1` (relative stereo) [Example 27, trans-1-(Thienylcarbonyl)-2-(phenyl-ethyl-oxycarbonyl)-cyclohexane], the activity at 20 µM in experiment [1] stood at 19.6%; in experiment [2], 298%.
`O=C(OCCc1ccccc1[N+](=O)[O-])c1ccccc1C(=O)c1cccs1` [Example 33]: the activity at 20 µM in experiment [1] was determined as 54.5%.
For `O=C(NCCCc1ccccc1)c1ccccc1C(=O)c1cccs1` [Example 31], the activity at 20 µM in experiment [1] was 30%; in experiment [2], 203%.
For `O=C(OCCc1ccccc1)c1ccccc1C(=O)c1cccs1` [Example 2], in that order: 65.5% and 214%.
The like results for `O=C(OCCc1ccc2ccccc2c1)c1ccccc1C(=O)c1cccs1` [Example 8] were, in that order, 93.7% and 165%.
Turning to `O=C(OCCc1cccc(F)c1)c1ccccc1C(=O)c1cccs1` [Example 38], in experiment [1], the activity at 20 µM turned out to be 33%.
With `O=C(OCc1ccc(F)cc1)c1ccccc1C(=O)c1cccs1` [Example 42], the activity at 20 µM in experiment [1] was found to be 32.4%.
Consider `O=C(OCCc1cccc(O)c1)c1ccccc1C(=O)c1cccs1` [Example 46], for which, in experiment [1], the activity at 20 µM is 35.8%.
For the compound `O=C(OCc1ccco1)c1ccccc1C(=O)c1cccs1` [Example 13, 2-(Furyl-methyl-oxycarbonyl)-phenylthenon], the activity at 20 µM in experiment [1] came to 74.2%; in experiment [2], 122%.
With `O=C(OCc1ccccc1F)c1ccccc1C(=O)c1cccs1` [Example 41], the activity at 20 µM in experiment [1] stood at 46.4%.
Turning to `O=C(OCc1ccccc1Cl)c1ccccc1C(=O)c1cccs1` [Example 21], the activity at 20 µM in experiment [1] was found to be 62.1%; in experiment [2], 220%.
For `O=C(OC1Cc2ccccc2C1)c1ccccc1C(=O)c1cccs1` [Example 7, 2-([2,3-Dihydro-1H-indene-2-yl]-oxycarbonyl)-phenylthenon], in that order: 85.3% and 205%.
For the compound `O=C(OCCc1ccccc1Cl)c1ccccc1C(=O)c1cccs1` [Example 26], the activity at 20 µM in experiment [1] was 36.6%; in experiment [2] it was 207%.
The like results for `O=C(OCCc1cccs1)c1ccccc1C(=O)c1cccs1` [Example 14, 2-(Thienyl-ethyl-oxycarbonyl)-phenylthenon] were, in that order, 41.4% and 200%.
For `O=C(OCCc1ccc([N+](=O)[O-])cc1)c1ccccc1C(=O)c1cccs1` [Example 5, 2-(4-Nitrophenyl-ethyl-oxycarbonyl)-phenylthenon], in that order: 102% and 160%.
With `O=C(NC1CC1c1ccccc1)c1ccccc1C(=O)c1cccs1` (stereo not shown) [Example 45], the activity at 20 µM in experiment [1] was 22%.
With `O=C(OCc1cccc(Cl)c1)c1ccccc1C(=O)c1cccs1` [Example 20], the values for the activity at 20 µM in experiment [1] and in experiment [2] were 49.2% and 180%, respectively.
The like results for `Cc1cccc(CCOC(=O)c2ccccc2C(=O)c2cccs2)c1` [Example 6] were, in that order, 45.8% and 215%.
With `Cc1ccc(CCOC(=O)c2ccccc2C(=O)c2cccs2)cc1` [Example 16, 2-(4-Methylphenylethyl-oxycarbonyl)-phenylthenon], the activity at 20 µM in experiment [1] was found to be 26.7%; in experiment [2] it was 180%.
The like results for `O=C(OCCCc1ccccc1)c1ccccc1C(=O)c1cccs1` [Example 11] were, in that order, 42.4% and 192%.
The like results for `O=C(OCc1cccc([N+](=O)[O-])c1)c1ccccc1C(=O)c1cccs1` [Example 22] were, in that order, 103% and 153%.
In the case of `O=C(OCCc1cccc([N+](=O)[O-])c1)c1ccccc1C(=O)c1cccs1` [Example 34], in experiment [1], the activity at 20 µM amounted to 78.8%.
As to `O=C(OCc1ccccc1)c1ccccc1C(=O)c1cccs1` [Example 1], the values for the activity at 20 µM in experiment [1] and in experiment [2] were 92.6% and 197%, respectively.
For `O=C(OCCc1ccccc1)c1ccccc1C(=O)c1ccco1` [Example 15, 2-(Phenyl-ethyl-oxycarbonyl)-1-(furylcarbonyl)-benzol], the values for the activity at 20 µM in experiment [1] and in experiment [2] were 48.2% and 144%, respectively.
For `O=C(OCC1c2ccccc2-c2ccccc21)c1ccccc1C(=O)c1cccs1` [Example 4, 2-(Fluorenyl-methyl-oxycarbonyl)-phenylthenon], in that order: 40.7% and 200%.
For the compound `O=C(OCc1cccc(Cl)c1Cl)c1ccccc1C(=O)c1cccs1` [Example 44], in experiment [1], the activity at 20 µM stood at 26.5%.
On to `O=C(NCc1ccccc1)c1ccccc1C(=O)c1cccs1` [Example 29, 2-(Phenylmethyl-amincarbonyl)-phenylthenon], for which the activity at 20 µM in experiment [1] was determined as 121%; in experiment [2] it was 109%.
Turning to `O=C(OCCc1ccccc1)[C@H]1CCCC[C@H]1C(=O)c1cccs1` [Example 28], in experiment [1], the activity at 20 µM came to 78.8%.
On the same count and under the same terms, the figure for `O=C(OCCc1ccc(F)cc1)c1ccccc1C(=O)c1cccs1` [Example 43] is 29.2%.
For the compound `O=C(OCCc1cc2ccccc2s1)c1ccccc1C(=O)c1cccs1` [Example 24, 2-(Benzo[b]thiophen-2-yl-ethyl-oxycarbonyl)-phenylthenon], the values for the activity at 20 µM in experiment [1] and in experiment [2] were 66.9% and 165%, respectively.
For `O=C(OCc1ccccc1[N+](=O)[O-])c1ccccc1C(=O)c1cccs1` [Example 23], in that order: 109% and 240%.
Regarding `COc1cccc(CCOC(=O)c2ccccc2C(=O)c2cccs2)c1` [Example 35], the activity at 20 µM in experiment [1] was found to be 46.7%.
Consider `O=C(OCCCc1cccs1)c1ccccc1C(=O)c1cccs1` [Example 25], for which the activity at 20 µM in experiment [1] came to 69%; in experiment [2], 197%.
For the compound `O=C(NCCc1ccccc1)c1ccccc1C(=O)c1ccco1` [Example 32], the results for the activity at 20 µM in experiment [1] and in experiment [2] were 32% and 63.9%, respectively.
`O=C(OCc1cccc(C(F)(F)F)c1)c1ccccc1C(=O)c1cccs1` [Example 36]: in experiment [1], the activity at 20 µM worked out at 79.8%.
Still for that read-out and setting: under `O=C(OCc1ccccc1Br)c1ccccc1C(=O)c1cccs1` [Example 40] stands 36%.
`O=C(OCc1ccc(Cl)cc1)c1ccccc1C(=O)c1cccs1` [Example 19, 2-(4-Chlorophenyl-methyl-oxycarbonyl)-phenylthenon]: the activity at 20 µM stood at 35.2% in experiment [1] and 195% in experiment [2].
For `O=C(OCCc1ccc(Cl)cc1)c1ccccc1C(=O)c1cccs1` [Example 37], in experiment [1], the activity at 20 µM was determined as 72.5%.
`O=C(OCc1ccc([N+](=O)[O-])cc1)c1ccccc1C(=O)c1cccs1` [Example 3]: the activity at 20 µM in experiment [1] was determined as 245%; in experiment [2], 141%.
For `O=C(OCCc1cccc(Cl)c1)c1ccccc1C(=O)c1cccs1` [Example 12], in that order: 53.7% and 191%.
